Where only a bound is given, the exact number is not on record here.

This note sets out measurements from patent publication US20060183784A1, “Human growth hormone antagonists” (Genentech, Inc., priority 2001, published 2006).

This experiment has as its target binding of biotinylated human growth hormone (b-hGH) to the extracellular domain of its receptor (Homo sapiens, UniProt P01241). The experiment in a line: ELISA of binding of biotinylated human growth hormone (b-hGH) to the extracellular domain of its receptor. Particulars: inhibition of b-hGH (about 1.5 nM) binding to receptor-coated plates; compounds re-tested at multiple concentrations. The protocol:
A collection of heterocyclic aromatic compounds (384 total; 1 mmol each) was obtained from Aldrich Chemical Company or prepared as described in Holan et al., J. Chem Soc. C, 20-25 (1967)) incorporated herein by reference. Each compound was dissolved in dimethyl sulfoxide (DMSO) to yield a 100-mM solution and arrayed in 96-well polypropylene deep-well plates (Beckman). Dilutions (10-fold in DMSO) were prepared from the parent plates; these 10-mM stocks were then diluted 50-fold in the screening assay as described below (200 μM final concentration; 2% DMSO).
Human growth hormone (100 μM) in phosphate-buffered saline (PBS) was treated with 2 molar equivalents of EZ-Link Sulfo-NHS-LC-biotin™ (Pierce 21335™) according to the manufacturer's instructions. Binding of the biotinylated human growth hormone (b-hGH) to the extracellular domain of its receptor was assayed in an ELISA format. Briefly, Nunc Maxi-Sorb™ 96-well plates were treated with a solution of the receptor (2 μg/mL) in phosphate-buffered saline (PBS) overnight at 4° C. Plates were then blocked with a 0.2% solution of bovine serum albumin (BSA; Sigma A-7638) in PBS for 2 hours at room temperature. An appropriate dilution of b-hGH (generally about 1.5 nM final concentration in PBS containing 0.05% Tween-20 T detergent) was added to polypropylene plates containing aliquots of the screening collection (147 μL b-hGH to 3 μL compound in DMSO) or DMSO alone, and the mixtures were allowed to equilibrate at room temperature for approximately 45 min. These mixtures were then transferred to the receptor-coated plates and allowed to stand for 15 min. Plates were washed (10 times) with PBS/Tween-20™. Streptavidin-HRP conjugate (Zymed Laboratories 43-4323™) followed by TMB peroxidase reagent (Kirkegaard & Perry Laboratories 50-76-03™) was used to detect bound b-hGH. Several potential inhibitor compounds were re-tested at multiple concentrations. Table 1 below provides IC50 of the compounds tested.
On the technique in general: ELISA stands for enzyme-linked immunosorbent assay.

binding of biotinylated human growth hormone (b-hGH) to the extracellular domain of its receptor, sequence (P01241 27-217): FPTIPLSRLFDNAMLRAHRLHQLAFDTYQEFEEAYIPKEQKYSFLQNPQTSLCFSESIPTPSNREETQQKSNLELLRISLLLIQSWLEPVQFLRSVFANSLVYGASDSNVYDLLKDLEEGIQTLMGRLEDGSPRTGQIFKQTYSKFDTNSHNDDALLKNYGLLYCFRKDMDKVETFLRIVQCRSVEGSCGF

As for `Clc1ccc2nc(C(Cl)(Cl)Cl)[nH]c2c1` [(i)], the half-maximal inhibitory concentration (IC50) (as a rule, the concentration that gives 50% inhibition) was found to be 77 µM. The compound `ClC(Cl)(Cl)c1nc2ccccc2[nH]1` [(ii)] showed an IC50 of 170 µM.

As for `Cn1c(C(Cl)(Cl)Cl)nc2ccccc21` [(iii)], the IC50 turned out to be 150 µM. In turn, `Cc1ccc2[nH]c(C(Cl)(Cl)Cl)nc2c1` [(iv)] came in with an IC50 of 98 µM. Turning to `ClC(Cl)(Cl)c1nc2ccccc2o1` [(ix)], the IC50 was greater than 1000 µM. In turn, `Clc1cc2nc(C(Cl)(Cl)Cl)[nH]c2cc1Cl` [(v)] yielded an IC50 of 51 µM. This counts as double-digit micromolar.

`FC(F)(F)c1nc2cc(Cl)ccc2[nH]1` [(vi)] yielded an IC50 greater than 1000 µM. Next, `Clc1ccc2[nH]cnc2c1` [(vii)]: greater than 1000 µM. `Cc1nc2cc(Cl)ccc2[nH]1` [(viii)] displayed an IC50 greater than 1000 µM. In the case of `ClC(Cl)(Cl)c1nc2ccccc2s1` [(x)], the IC50 was greater than 1000 µM. `Cc1nc2ccccc2[nH]1` [(xi)] returned an IC50 greater than 1000 µM. As to `c1ccc2[nH]c(-c3cscn3)nc2c1` [(xii)], the IC50 was greater than 1000 µM. Compound `Cc1ccc2[nH]cnc2c1` [(xiii)] displayed an IC50 greater than 1000 µM.
